Earlier results, collected in patent US20240293347A1, “COMPOSITION AND METHODS OF TREATMENT USING TRANSDERMAL HORMONE SUPPLEMENTATION” (Xygenyx Inc., priority 2023, published 2024).

Key:
[1] = used as penetration enhancer for transdermal drugs
[2] = in the human body

| Molecule | increase of drug uptake via the transdermal route (factor) [1] | biological half-life [2] |
| --- | --- | --- |
| CC(C)[C@@H]1CC[C@@H](C)C[C@H]1O [Menthol] | ≥ 10 | – |
| CC12CCC(CC1)C(C)(C)O2 [eucalyptol, 1,8-epoxy-p-menthane] | more than 10 | – |
| HGH: hormone comprising a peptide chain that is synthesized in the pituitary gland | – | 10-20 minutes |
